Test results from PubChem BioAssay AID1963965 (Molecular Pharmacology Branch, DTP, NCI, 2024).

System: 996289-038-R-J1-PDC spheroid viability
Assay: Anticancer human tumor 996289-038-R-J1-PDC patient-derived colon adenocarcinoma cell line growth inhibition [PI3K]
Details: spheroids with HUVEC and MSC; for IC50: curve of first compound; for viability, T/C: stronger effect = lower value
Outline: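 Targeted small molecules plus PI3K inhibitors, half-log dose series from Cmax (default top 10 microM), were applied to heterotypic spheroids of cancer cells with HUVEC and MSCs. Viability indicated growth inhibition.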
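Also: spheroids exposed to compounds for seven days before viability read.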
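For viability, T/C in this document: luminescence used as a proxy for viable cell amount; percent viability relative to DMSO vehicle control as 100%.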

C#Cc1c(F)ccc2cc(O)cc(-c3ncc4c(N5CC6CCC(C5)N6)nc(OCC56CCCN5CC(F)C6)nc4c3F)c12 (configuration not stated) + CC(Nc1ccc2c(c1)OCCn1cc(N3C(=O)OCC3C(F)F)nc1-2)C(N)=O
IC50 (second compound 0.00316 µM): 1450 nM
IC50 (second compound 0.01 µM): 859 nM
IC50 (second compound 0.0316 µM): 641 nM
IC50 (second compound 0.1 µM): 347 nM
IC50 (second compound 0.316 µM): 169 nM
IC50 (second compound 1 µM): 77.2 nM
viability, T/C (second compound 0.00316 µM, first compound 0.0316 µM): 86%
viability, T/C (second compound 0.00316 µM, first compound 0.1 µM): 81.2%
viability, T/C (second compound 0.00316 µM, first compound 0.316 µM): 67.4%
viability, T/C (second compound 0.00316 µM, first compound 1 µM): 52%
viability, T/C (second compound 0.00316 µM, first compound 3.16 µM): 45%
viability, T/C (second compound 0.00316 µM, first compound 10 µM): 34.9%
viability, T/C (second compound 0.01 µM, first compound 0.0316 µM): 89%
viability, T/C (second compound 0.01 µM, first compound 0.1 µM): 80.6%
viability, T/C (second compound 0.01 µM, first compound 0.316 µM): 57.7%
viability, T/C (second compound 0.01 µM, first compound 1 µM): 52.6%
viability, T/C (second compound 0.01 µM, first compound 3.16 µM): 39.8%
viability, T/C (second compound 0.01 µM, first compound 10 µM): 41.1%
viability, T/C (second compound 0.0316 µM, first compound 0.0316 µM): 87.5%
viability, T/C (second compound 0.0316 µM, first compound 0.1 µM): 83.2%
viability, T/C (second compound 0.0316 µM, first compound 0.316 µM): 59.6%
viability, T/C (second compound 0.0316 µM, first compound 1 µM): 42.5%
viability, T/C (second compound 0.0316 µM, first compound 3.16 µM): 44.2%
viability, T/C (second compound 0.0316 µM, first compound 10 µM): 30%
viability, T/C (second compound 0.1 µM, first compound 0.0316 µM): 75%
viability, T/C (second compound 0.1 µM, first compound 0.1 µM): 69.6%
viability, T/C (second compound 0.1 µM, first compound 0.316 µM): 50.2%
viability, T/C (second compound 0.1 µM, first compound 1 µM): 35.9%
viability, T/C (second compound 0.1 µM, first compound 3.16 µM): 32%
viability, T/C (second compound 0.1 µM, first compound 10 µM): 26.1%
viability, T/C (second compound 0.316 µM, first compound 0.0316 µM): 72.2%
viability, T/C (second compound 0.316 µM, first compound 0.1 µM): 57.1%
viability, T/C (second compound 0.316 µM, first compound 0.316 µM): 40.8%
viability, T/C (second compound 0.316 µM, first compound 1 µM): 33.7%
viability, T/C (second compound 0.316 µM, first compound 3.16 µM): 29.6%
viability, T/C (second compound 0.316 µM, first compound 10 µM): 21.6%
viability, T/C (second compound 1 µM, first compound 0.0316 µM): 56.8%
viability, T/C (second compound 1 µM, first compound 0.1 µM): 48.8%
viability, T/C (second compound 1 µM, first compound 0.316 µM): 39%
viability, T/C (second compound 1 µM, first compound 1 µM): 29.3%
viability, T/C (second compound 1 µM, first compound 3.16 µM): 26.4%
viability, T/C (second compound 1 µM, first compound 10 µM): 17.9%
